Measurements as given in ChEMBL document CHEMBL6109052, “Overview of the epigenetic/cytotoxic dual-target inhibitors for cancer therapy” (Eur J Med Chem, 2025).

What was measured:
Tubulin = assay: Inhibition of tubulin polymerization (unknown origin); format: protein-complex assay, Homo sapiens
K562 = assay: Antiproliferative activity against human K562 cells assessed as reduction in cell viability incubated for 48 hrs by MTT assay; format: functional, cell-based; conditions: K562, 48 h
MCF7 = assay: Antiproliferative activity against human MCF7 cells assessed as reduction in cell viability incubated for 48 hrs by MTT assay; format: functional, cell-based; conditions: MCF7, 48 h
HCT-116 [1] = assay: Antiproliferative activity against human HCT-116 cells assessed as reduction in cell viability incubated for 48 hrs by MTT assay; format: functional, cell-based; conditions: HCT-116, 48 h
HCC1937 = assay: Antiproliferative activity against human HCC1937 cells assessed as reduction in cell viability incubated for 48 hrs by MTT assay; format: functional, cell-based; conditions: HCC1937, 48 h
[2] = target: T1, Poly [ADP-ribose] polymerase 1 (Homo sapiens, UniProt P09874); assay: Inhibition of PARP-1 (unknown origin)
T1 sequence (P09874 whole entry): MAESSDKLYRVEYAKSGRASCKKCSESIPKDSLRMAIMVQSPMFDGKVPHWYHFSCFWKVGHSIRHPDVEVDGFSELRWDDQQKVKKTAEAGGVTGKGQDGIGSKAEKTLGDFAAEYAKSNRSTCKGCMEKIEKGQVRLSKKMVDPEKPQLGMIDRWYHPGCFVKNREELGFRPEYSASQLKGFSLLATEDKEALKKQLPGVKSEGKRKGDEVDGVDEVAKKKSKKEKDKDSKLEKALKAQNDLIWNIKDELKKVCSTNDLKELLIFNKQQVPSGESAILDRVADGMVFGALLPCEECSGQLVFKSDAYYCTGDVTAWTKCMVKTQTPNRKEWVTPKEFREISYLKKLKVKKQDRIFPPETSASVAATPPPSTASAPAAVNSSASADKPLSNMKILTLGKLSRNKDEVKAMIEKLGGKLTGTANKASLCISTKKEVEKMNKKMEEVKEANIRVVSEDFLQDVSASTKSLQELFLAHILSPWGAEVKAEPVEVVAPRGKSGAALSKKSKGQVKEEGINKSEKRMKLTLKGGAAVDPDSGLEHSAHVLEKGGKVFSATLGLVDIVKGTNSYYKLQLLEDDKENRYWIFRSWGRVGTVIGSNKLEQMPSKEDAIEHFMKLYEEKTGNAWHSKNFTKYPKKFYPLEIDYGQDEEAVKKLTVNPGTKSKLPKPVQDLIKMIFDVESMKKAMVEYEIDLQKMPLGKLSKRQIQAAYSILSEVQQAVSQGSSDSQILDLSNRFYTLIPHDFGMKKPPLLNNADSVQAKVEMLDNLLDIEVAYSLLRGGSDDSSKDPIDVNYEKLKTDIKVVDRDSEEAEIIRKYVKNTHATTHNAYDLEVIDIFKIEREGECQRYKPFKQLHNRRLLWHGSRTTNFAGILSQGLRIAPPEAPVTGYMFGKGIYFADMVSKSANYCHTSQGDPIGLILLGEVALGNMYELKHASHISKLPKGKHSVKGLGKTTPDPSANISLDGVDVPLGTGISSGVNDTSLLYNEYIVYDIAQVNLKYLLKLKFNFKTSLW

SNU-475 = assay: Antiproliferative activity against human SNU-475 cells assessed as reduction in cell viability incubated for 48 hrs by MTT assay; conditions: SNU-475, 48 h
HepG2 [3] = assay: Antiproliferative activity against human HepG2 cells assessed as reduction in cell viability incubated for 48 hrs by MTT assay; conditions: HepG2, 48 h
Bel-7402 = assay: Antitumor activity against human Bel-7402 cells xenografted in nude mouse model assessed as tumor growth inhibition at 50 mg/kg, IG administered for 21 days relative to control; conditions: Bel-7402, po, 504 h, read-out: TGI
A549 [4] = assay: Antiproliferative activity against human A549 cells assessed as reduction in cell viability incubated for 3 days by Cell-titer glo reagent based assay; format: functional; conditions: A549, 72 h
HCT-116 [5] = assay: Antiproliferative activity against human HCT-116 cells assessed as reduction in cell viability incubated for 3 days by Cell-titer glo reagent based assay; format: functional; conditions: HCT-116, 72 h
[6] = Half life in BALB/c mouse at 50 mg/kg, po by LC-MS/MS analysis; format: ADME, organism-based; conditions: in vivo
[7] = Oral bioavailability in BALB/c mouse at 50 mg/kg by LC-MS/MS analysis; format: ADME, organism-based; conditions: in vivo
[8] = target: T1, Poly [ADP-ribose] polymerase 1; assay: Inhibition of PARP1 (unknown origin)
A549 [9] = assay: Antiproliferative activity against human A549 cells; format: functional, cell-based
HT-29 [10] = assay: Antiproliferative activity against human HT-29 cells; format: functional, cell-based
HepG2 [11] = assay: Antiproliferative activity against human HepG2 cells; format: functional, cell-based
[12] = target: T2, Protein deacetylase HDAC6 (Homo sapiens, UniProt Q9UBN7); assay: Inhibition of HDAC6 (unknown origin)
T2 sequence (Q9UBN7 whole entry): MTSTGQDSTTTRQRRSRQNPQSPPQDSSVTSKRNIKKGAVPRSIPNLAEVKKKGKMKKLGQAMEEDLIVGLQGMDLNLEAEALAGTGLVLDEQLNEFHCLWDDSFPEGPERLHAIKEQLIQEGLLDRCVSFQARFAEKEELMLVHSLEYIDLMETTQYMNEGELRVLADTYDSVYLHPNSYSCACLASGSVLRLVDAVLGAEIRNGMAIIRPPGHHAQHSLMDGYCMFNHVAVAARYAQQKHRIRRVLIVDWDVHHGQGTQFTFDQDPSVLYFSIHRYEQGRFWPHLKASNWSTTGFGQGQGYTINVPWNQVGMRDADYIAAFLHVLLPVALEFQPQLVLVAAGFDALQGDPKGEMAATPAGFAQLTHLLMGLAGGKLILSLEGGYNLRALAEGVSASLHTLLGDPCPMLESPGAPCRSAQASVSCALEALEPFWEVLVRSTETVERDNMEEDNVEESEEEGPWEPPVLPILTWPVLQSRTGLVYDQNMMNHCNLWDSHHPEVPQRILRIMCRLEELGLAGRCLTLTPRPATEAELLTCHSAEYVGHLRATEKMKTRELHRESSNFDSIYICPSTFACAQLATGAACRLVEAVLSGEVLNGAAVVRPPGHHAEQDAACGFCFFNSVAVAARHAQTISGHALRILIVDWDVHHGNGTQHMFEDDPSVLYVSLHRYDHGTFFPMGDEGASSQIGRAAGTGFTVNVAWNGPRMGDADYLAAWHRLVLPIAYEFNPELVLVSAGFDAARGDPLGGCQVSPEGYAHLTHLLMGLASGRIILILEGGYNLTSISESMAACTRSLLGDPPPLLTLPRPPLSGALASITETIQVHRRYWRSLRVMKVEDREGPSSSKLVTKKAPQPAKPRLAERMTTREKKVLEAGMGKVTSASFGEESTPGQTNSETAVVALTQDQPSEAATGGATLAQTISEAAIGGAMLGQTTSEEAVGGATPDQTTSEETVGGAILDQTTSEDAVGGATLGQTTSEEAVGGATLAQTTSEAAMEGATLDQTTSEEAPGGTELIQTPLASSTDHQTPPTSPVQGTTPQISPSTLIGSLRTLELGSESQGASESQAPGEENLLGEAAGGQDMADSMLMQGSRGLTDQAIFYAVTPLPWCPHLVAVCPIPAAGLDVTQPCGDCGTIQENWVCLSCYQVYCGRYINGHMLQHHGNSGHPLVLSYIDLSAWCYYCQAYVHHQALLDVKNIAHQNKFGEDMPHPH

Histone deacetylase 2 = Histone deacetylase 2 (Homo sapiens, UniProt Q92769); assay: Inhibition of HDAC2 (unknown origin)
Histone deacetylase 2, sequence (Q92769 whole entry): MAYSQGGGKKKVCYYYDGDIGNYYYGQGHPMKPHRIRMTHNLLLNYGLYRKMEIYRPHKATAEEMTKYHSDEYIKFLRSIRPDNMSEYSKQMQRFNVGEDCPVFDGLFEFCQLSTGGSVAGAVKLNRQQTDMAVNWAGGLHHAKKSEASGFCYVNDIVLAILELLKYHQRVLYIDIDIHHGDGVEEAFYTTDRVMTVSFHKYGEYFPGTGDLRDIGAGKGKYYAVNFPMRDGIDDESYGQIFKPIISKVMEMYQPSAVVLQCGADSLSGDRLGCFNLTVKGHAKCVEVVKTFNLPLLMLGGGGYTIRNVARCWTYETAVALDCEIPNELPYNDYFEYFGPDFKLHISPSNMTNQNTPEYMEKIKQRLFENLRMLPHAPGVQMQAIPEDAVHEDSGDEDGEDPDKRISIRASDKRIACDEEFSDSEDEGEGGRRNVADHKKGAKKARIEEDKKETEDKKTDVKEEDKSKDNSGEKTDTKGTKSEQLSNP

Histone deacetylase 3 = Histone deacetylase 3 (Homo sapiens, UniProt O15379); assay: Inhibition of HDAC3 (unknown origin)
Histone deacetylase 3, sequence (O15379 whole entry): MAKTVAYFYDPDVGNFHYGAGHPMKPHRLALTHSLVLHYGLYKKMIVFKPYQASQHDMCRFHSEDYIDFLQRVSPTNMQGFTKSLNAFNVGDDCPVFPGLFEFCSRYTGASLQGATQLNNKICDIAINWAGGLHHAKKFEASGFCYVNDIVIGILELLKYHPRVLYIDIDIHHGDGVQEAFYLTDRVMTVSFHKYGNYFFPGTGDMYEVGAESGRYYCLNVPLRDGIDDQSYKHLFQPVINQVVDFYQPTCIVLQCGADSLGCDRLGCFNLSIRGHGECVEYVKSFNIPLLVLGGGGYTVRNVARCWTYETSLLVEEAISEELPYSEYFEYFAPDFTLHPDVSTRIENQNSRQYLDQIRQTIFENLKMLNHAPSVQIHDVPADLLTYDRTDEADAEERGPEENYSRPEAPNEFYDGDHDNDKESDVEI

MGC-803 = assay: Antiproliferative activity against human MGC-803 cells by MTT assay; format: functional, cell-based
Histone deacetylase 1 [13] = target: T3, Histone deacetylase 1 (Homo sapiens, UniProt Q13547); assay: Inhibition of HDAC1 (unknown origin)
T3 sequence (Q13547 whole entry): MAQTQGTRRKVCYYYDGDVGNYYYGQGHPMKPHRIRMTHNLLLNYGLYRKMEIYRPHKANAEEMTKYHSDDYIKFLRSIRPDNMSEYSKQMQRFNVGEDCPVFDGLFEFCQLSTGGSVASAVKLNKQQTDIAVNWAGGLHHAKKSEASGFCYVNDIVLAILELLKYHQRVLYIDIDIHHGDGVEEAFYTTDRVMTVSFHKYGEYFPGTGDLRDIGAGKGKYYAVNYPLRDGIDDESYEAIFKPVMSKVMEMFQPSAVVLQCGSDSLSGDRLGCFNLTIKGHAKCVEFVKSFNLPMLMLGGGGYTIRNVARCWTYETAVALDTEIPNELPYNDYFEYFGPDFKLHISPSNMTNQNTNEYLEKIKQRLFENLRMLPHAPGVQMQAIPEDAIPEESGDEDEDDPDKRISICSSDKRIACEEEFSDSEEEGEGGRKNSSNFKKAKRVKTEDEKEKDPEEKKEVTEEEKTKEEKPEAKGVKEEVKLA

[14] = Metabolic stability in human liver microsomes assessed as intrinsic clearance measured for 30 mins by LC-MS/MS analysis; format: ADME, Microsome; conditions: read-out: CLH
[15] = Metabolic stability in human liver microsomes assessed as half life for 30 mins by LC-MS/MS analysis; format: ADME, Microsome
Histone deacetylase 4 = Histone deacetylase 4 (Homo sapiens, UniProt P56524); assay: Inhibition of HDAC4 (unknown origin)
Histone deacetylase 4, sequence (P56524 whole entry): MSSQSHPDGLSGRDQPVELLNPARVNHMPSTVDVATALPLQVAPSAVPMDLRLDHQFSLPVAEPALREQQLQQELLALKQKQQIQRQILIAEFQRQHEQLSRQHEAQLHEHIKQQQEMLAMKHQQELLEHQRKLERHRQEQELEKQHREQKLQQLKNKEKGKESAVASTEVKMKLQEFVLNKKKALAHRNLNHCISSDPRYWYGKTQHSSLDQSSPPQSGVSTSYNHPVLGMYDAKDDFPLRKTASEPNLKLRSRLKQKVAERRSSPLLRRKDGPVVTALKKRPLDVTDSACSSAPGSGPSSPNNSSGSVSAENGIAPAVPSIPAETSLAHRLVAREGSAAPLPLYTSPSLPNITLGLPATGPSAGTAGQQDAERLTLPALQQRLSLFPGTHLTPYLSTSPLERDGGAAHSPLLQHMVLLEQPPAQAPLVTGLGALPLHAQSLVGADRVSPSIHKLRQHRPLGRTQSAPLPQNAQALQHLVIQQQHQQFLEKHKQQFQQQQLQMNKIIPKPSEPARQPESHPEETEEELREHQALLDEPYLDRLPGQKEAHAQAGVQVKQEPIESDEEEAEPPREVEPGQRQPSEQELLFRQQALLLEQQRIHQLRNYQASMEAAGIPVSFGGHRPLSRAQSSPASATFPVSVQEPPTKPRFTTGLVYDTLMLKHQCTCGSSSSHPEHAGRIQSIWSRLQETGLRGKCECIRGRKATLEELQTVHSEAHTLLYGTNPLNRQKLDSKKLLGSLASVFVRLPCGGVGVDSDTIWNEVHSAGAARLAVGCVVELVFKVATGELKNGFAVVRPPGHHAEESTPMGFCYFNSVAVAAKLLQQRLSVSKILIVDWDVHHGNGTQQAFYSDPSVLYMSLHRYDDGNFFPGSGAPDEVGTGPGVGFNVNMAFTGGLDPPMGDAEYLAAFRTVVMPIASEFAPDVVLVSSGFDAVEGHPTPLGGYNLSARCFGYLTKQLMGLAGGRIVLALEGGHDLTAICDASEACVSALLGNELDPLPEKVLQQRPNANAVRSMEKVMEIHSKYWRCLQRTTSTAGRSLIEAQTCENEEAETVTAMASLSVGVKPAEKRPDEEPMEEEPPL

Histone deacetylase 5 = Histone deacetylase 5 (Homo sapiens, UniProt Q9UQL6); assay: Inhibition of HDAC5 (unknown origin)
Histone deacetylase 8 = Histone deacetylase 8 (Homo sapiens, UniProt Q9BY41); assay: Inhibition of HDAC8 (unknown origin)
EA.hy 926 = assay: Antiproliferative activity against human EA.hy 926 cells assessed as reduction in cell growth incubated for 72 hrs by MTT assay; format: functional, cell-based; conditions: EA.hy 926, 72 h
[16] = target: T2, Protein deacetylase HDAC6; assay: Inhibition of human recombinant HDAC6 using fluorogenic peptide p53 (379 to 382 residues) RHKK(Ac) as substrate by fluorescence based analysis
[17] = target: Polyamine deacetylase HDAC10 (Homo sapiens, UniProt Q969S8); assay: Inhibition of human recombinant HDAC10 using fluorogenic peptide p53 (379 to 382 residues) RHKK(Ac) as substrate by fluorescence based analysis
Polyamine deacetylase HDAC10, sequence (Q969S8 whole entry, the tested form may be a part): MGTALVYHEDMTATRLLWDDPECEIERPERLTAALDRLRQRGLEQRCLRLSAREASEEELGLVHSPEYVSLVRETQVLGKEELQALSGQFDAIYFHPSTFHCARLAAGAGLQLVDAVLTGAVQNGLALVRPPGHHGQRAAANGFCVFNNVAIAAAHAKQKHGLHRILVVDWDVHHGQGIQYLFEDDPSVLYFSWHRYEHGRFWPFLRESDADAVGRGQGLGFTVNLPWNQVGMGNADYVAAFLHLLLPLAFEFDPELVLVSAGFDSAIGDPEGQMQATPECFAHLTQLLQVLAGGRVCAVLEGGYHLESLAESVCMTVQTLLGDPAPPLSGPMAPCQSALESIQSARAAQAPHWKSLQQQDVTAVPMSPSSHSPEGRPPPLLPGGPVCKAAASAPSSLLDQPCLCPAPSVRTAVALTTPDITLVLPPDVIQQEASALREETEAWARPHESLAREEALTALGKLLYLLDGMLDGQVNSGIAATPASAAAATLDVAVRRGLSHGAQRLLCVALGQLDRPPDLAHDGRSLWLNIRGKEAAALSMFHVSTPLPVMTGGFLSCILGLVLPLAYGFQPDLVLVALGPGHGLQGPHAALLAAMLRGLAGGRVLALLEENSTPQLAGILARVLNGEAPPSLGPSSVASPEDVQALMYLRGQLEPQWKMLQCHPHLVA

NCI-H460 = assay: Antiproliferative activity against human NCI-H460 cells assessed as reduction in cell growth incubated for 72 hrs by SRB assay; format: functional, cell-based; conditions: NCI-H460, 72 h
CAPAN-1 = assay: Antiproliferative activity against human CAPAN-1 cells assessed as reduction in cell growth incubated for 72 hrs by SRB assay; format: functional, cell-based; conditions: CAPAN-1, 72 h
A-431 = assay: Antiproliferative activity against human A-431 cells assessed as reduction in cell growth incubated for 72 hrs by SRB assay; format: functional, cell-based; conditions: A-431, 72 h
HeLa = assay: Antiproliferative activity against human Hela cells assessed as reduction in cell growth incubated for 72 hrs by SRB assay; format: functional, cell-based
HT-29 [18] = assay: Antiproliferative activity against human HT-29 cells assessed as reduction in cell growth incubated for 72 hrs by SRB assay; format: functional, cell-based; conditions: HT-29, 72 h
DU-145 = assay: Antiproliferative activity against human DU-145 cells assessed as reduction in cell growth incubated for 72 hrs by SRB assay; format: functional, cell-based; conditions: DU-145, 72 h
HepG2 [19] = assay: Antiproliferative activity against human HepG2 cells assessed as reduction in cell growth incubated for 72 hrs by SRB assay; format: functional, cell-based; conditions: HepG2, 72 h
A2780 = assay: Antiproliferative activity against human A2780 cells assessed as reduction in cell growth incubated for 72 hrs by SRB assay; format: functional, cell-based; conditions: A2780, 72 h
[20] = Antiproliferative activity against human Doxorubicin-resistant A2780-DX cells assessed as reduction in cell growth incubated for 72 hrs by SRB assay; format: functional, cell-based
[21] = Cytotoxicity against human MM472 cells assessed as reduction in cell viability incubated for 72 hrs by SRB assay; format: functional, cell-based; conditions: MM472, 72 h
Histone deacetylase 1 [22] = target: T3, Histone deacetylase 1; assay: Inhibition of human recombinant HDAC1 using fluorogenic peptide p53 (379 to 382 residues) RHKK(Ac) as substrate by fluorescence based analysis
[23] = Inhibition of human recombinant HDAC2 using fluorogenic peptide p53 (379 to 382 residues) RHKK(Ac) as substrate by fluorescence based analysis
DNA topoisomerase 1 = DNA topoisomerase 1 (Homo sapiens, UniProt P11387); assay: Inhibition of Topoisomerase 1 (unknown origin)
DNA topoisomerase 1, sequence (P11387 whole entry): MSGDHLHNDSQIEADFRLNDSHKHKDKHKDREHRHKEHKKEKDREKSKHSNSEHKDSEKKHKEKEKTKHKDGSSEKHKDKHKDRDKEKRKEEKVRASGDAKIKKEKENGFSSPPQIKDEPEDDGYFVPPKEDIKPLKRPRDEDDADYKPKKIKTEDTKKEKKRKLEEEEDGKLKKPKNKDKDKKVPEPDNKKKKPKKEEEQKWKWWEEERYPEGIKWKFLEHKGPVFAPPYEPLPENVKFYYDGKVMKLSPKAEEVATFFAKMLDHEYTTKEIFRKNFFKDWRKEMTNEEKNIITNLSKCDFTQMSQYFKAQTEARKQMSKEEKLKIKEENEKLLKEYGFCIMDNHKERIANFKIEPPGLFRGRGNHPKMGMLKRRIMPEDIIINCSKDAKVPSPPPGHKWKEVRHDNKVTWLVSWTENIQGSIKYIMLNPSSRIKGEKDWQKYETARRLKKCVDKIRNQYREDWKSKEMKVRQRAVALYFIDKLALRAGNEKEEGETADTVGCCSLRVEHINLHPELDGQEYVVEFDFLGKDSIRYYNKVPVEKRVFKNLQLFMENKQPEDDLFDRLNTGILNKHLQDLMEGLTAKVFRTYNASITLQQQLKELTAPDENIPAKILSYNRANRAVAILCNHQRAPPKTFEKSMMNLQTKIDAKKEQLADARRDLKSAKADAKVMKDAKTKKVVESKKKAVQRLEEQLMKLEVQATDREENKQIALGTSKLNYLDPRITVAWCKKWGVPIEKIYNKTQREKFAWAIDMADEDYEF

## Cc1ccc(Cn2cc(CSC(=S)N3CCN(C(=O)OC(C)(C)C)CC3)nn2)cc1
Tubulin
  IC50: 1270 nM

## O=C(c1cc(Cc2n[nH]c(=O)c3ccccc23)ccc1F)N1CCN(c2c3ccccc3nc3ccccc23)CC1
K562
  IC50: 3940 nM
MCF7
  IC50: 13800 nM
HCT-116 [1]
  IC50: 12900 nM
HCC1937
  IC50: 7960 nM
[2]
  IC50: 11800 nM

## COc1ccc(S(=O)(=O)N(CCSC(=S)N2CCN(C)CC2)c2cc(OC)c(OC)c(OC)c2)cc1
SNU-475
  IC50: 730 nM
HepG2 [3]
  IC50: 570 nM
Bel-7402
  inhibition in vivo at 50 mg/kg: 43%

## CCOC(=O)Nc1nc2ccc(-c3cc(Cc4n[nH]c(=O)c5ccccc45)ccc3F)cc2[nH]1
Tubulin
  IC50: 990 nM
A549 [4]
  IC50: 141 nM
HCT-116 [5]
  IC50: 352 nM
[6]
  half-life: 3.28 h
[7]
  bioavailability: 31%
[8]
  IC50: 7 nM

## COc1ccc2c3ccnc(C)c3n(CC3CCN(c4ncc(C(=O)NO)cn4)CC3)c2c1
A549 [9]
  IC50: 5960 nM
HT-29 [10]
  IC50: 1880 nM
HepG2 [11]
  IC50: 2880 nM

## COc1ccc(CN(C(=O)Cc2ccc(C(=O)Nc3ccccc3N)cc2)c2cc(OC)c(OC)c(OC)c2)cc1O
[12]
  IC50: 77400 nM
Histone deacetylase 2
  IC50: 3010 nM
Histone deacetylase 3
  IC50: 5270 nM
MGC-803
  IC50: 39 nM

## COc1cc(/C=C/C(=O)c2ccc(NC(=O)c3ccccc3CN3C(=O)c4ccccc4C3=O)cc2)cc(OC)c1OC
Histone deacetylase 1 [13]
  IC50: 220 nM
Histone deacetylase 2
  IC50: 430 nM

## COc1ccc(-c2cccc(-c3cc(OC)c(OC)c(OC)c3)n2)cc1C(=O)NO
Tubulin
  IC50: 2400 nM
[14]
  CLint scaled: 22.8 mL/min/kg
[15]
  half-life: 0.913 h

## Cn1c(CCCCCCC(=O)NO)nc2ccc(N(CCCl)CCCl)cc21
Histone deacetylase 1 [13]
  IC50: 17 nM
[12]
  IC50: 72 nM
Histone deacetylase 2
  IC50: 10 nM
Histone deacetylase 3
  IC50: 25 nM
Histone deacetylase 4
  IC50: 6.4 nM
Histone deacetylase 5
  IC50: 107 nM

## O=C(Cc1ccc(/C=C/C(=O)c2ncc[nH]2)cc1)Nc1ccc(F)cc1
Histone deacetylase 8
  IC50: 1400 nM
Histone deacetylase 1 [13]
  IC50: 1800 nM
[12]
  IC50: 2000 nM
Histone deacetylase 2
  IC50: 2100 nM
Histone deacetylase 3
  IC50: 1800 nM

## COc1ccc(-c2ocnc2-c2cc(Br)c(OC)c(OC)c2)cc1OCCCCCC(=O)NO
EA.hy 926
  IC50: 410 nM

## CC[C@]1(O)C(=O)OCc2c1cc1n(c2=O)Cc2c-1nc1ccc(O)cc1c2/C=N/OCCCCCC(=O)NO
[16]
  IC50: 1560 nM
[17]
  IC50: 2240 nM
NCI-H460
  IC50: 30 nM
CAPAN-1
  IC50: 30 nM
A-431
  IC50: 30 nM
HeLa
  IC50: 30 nM
HT-29 [18]
  IC50: 30 nM
DU-145
  IC50: 30 nM
HepG2 [19]
  IC50: 30 nM
A2780
  IC50: 30 nM
[20]
  IC50: 30 nM
[21]
  IC50: 48 nM
Histone deacetylase 1 [22]
  IC50: 5260 nM
[23]
  IC50: 9330 nM

## CCc1c2c(nc3ccc(O)cc13)-c1cc3c(c(=O)n1C2)COC(=O)[C@]3(O)CC [7-ETHYL-10-HYDROXYCAMPTOTHECIN]
DNA topoisomerase 1
  IC50: 770 nM
